What follows are compounds tested against S1P1 receptors (Homo sapiens, UniProt P21453) (assay: 35S-GTPyS binding assay). Conditions: 35S-GTPyS binding to membranes, 90 min at room temperature; 10 μM S1P used as 100% maximum efficacy.
Format: biochemical
Method: The effect of the compounds was measured using a 35S-GTPyS binding assay. Briefly, membranes were incubated in a buffer containing 20 mM HEPES pH 7.4, 100 mM NaCl, 10 mM MgCl2, 10 μM GDP, 50 μg/mL saponin and 0.2% fatty acid-free BSA at various concentrations (0.1 nM-10 μM) and 0.1 nM 35S-GTPyS. 10 μM S1P was used as 100% maximum efficacy. The assay was incubated for 90 min at room temperature with gentle mixing, and terminated by filtrating the reaction mixture through GF/C filter plates using the Manifold Filtration System. The filters were immediately washed with sodium phosphate pH 7.4 buffer. After drying the filter plates scintillant liquid were added to each well and 35S-GTPyS binding was measured on a Trilux Scintillation Counter.

Chain of S1P1 receptors (P21453 whole entry): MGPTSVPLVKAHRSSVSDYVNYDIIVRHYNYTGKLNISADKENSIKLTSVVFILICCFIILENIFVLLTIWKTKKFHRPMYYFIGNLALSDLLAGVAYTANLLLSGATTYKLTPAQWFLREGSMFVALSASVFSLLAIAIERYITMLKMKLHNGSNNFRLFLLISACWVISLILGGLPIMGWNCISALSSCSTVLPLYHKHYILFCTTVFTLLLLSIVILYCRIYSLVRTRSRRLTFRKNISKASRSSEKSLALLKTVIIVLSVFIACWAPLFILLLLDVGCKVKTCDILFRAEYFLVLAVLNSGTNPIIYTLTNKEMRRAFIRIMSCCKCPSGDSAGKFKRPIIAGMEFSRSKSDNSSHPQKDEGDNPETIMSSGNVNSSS

| Structure (SMILES) | EC50 |
| --- | --- |
| CNc1ncc(-c2nc(-c3cc(C)c(OCCN)c(C)c3)no2)c2c1CC(C)(C)CC2 [Example 36, 4-{3-[4-(2-aminoethoxy)-3,5-dimethylphenyl]-1,2,4-oxadiazol-5-yl}-N,7,7-trimethyl-5,6,7,8-tetrahydroisoquinolin-1-amine] | 16.4 nM |
| Cc1cc(-c2noc(-c3cncc4c3CCC(C)(C)C4)n2)cc(C)c1CC(O)CO (centres unmarked) [Example 22, 3-(4-(5-(7,7-dimethyl-5,6,7,8-tetrahydroisoquinolin-4-yl)-1,2,4-oxadiazol-3-yl)-2,6-dimethylphenyl)propane-1,2-diol] | 19 nM |
| Cc1cc(-c2noc(-c3cnc(C4CC4)c4c3CCC(C)(C)C4)n2)cc(C)c1CCC(=O)O [Example 8, 3-(4-(5-(1-cyclopropyl-7,7-dimethyl-5,6,7,8-tetrahydroisoquinolin-4-yl)-1,2,4-oxadiazol-3-yl)-2,6-dimethylphenyl)propanoic acid] | 28.5 nM |
| Cc1cc(-c2noc(-c3cncc4c3CCC(C)(C)C4)n2)cc(C)c1CCNCC(F)F [Example 24, N-(4-(5-(7,7-dimethyl-5,6,7,8-tetrahydroisoquinolin-4-yl)-1,2,4-oxadiazol-3-yl)-2,6-dimethylphenethyl)-2,2-difluoroethanamine] | 19.4 nM |
| Cc1cc(-c2noc(-c3cncc4c3CCC(C)(C)C4)n2)cc(C)c1CCN1CC(C(=O)O)C1 [Example 25, 1-(4-(5-(7,7-dimethyl-5,6,7,8-tetrahydroisoquinolin-4-yl)-1,2,4-oxadiazol-3-yl)-2,6-dimethylphenethyl)azetidine-3-carboxylic acid] | 36.7 nM |
| CCc1ncc(-c2nc(-c3cc(C)c(CCC(N)=O)c(C)c3)no2)c2c1CC(C)(C)CC2 [Example 6, 3-(4-(5-(1-ethyl-7,7-dimethyl-5,6,7,8-tetrahydroisoquinolin-4-yl)-1,2,4-oxadiazol-3-yl)-2,6-dimethylphenyl)propanamide] | 29 nM |
| Cc1cc(-c2noc(-c3cnc(N(C)C)c4c3CCC(C)(C)C4)n2)cc(C)c1CC(O)CO (centres unmarked) [Example 37, 3-(4-{5-[1-(dimethylamino)-7,7-dimethyl-5,6,7,8-tetrahydroisoquinolin-4-yl]-1,2,4-oxadiazol-3-yl}-2,6-dimethylphenyl)propane-1,2-diol] | 21.7 nM |
| CCc1ncc(-c2nc(-c3cc(C)c(CCN)c(C)c3)no2)c2c1CC(C)(C)CC2 [Example 7, 2-(4-(5-(1-ethyl-7,7-dimethyl-5,6,7,8-tetrahydroisoquinolin-4-yl)-1,2,4-oxadiazol-3-yl)-2,6-dimethylphenyl)ethanamine] | 10.8 nM |

Source: patent publication US20110274657A1, “OXADIAZOLE DERIVATIVES AS S1P1 RECEPTOR ANTAGONISTS” (priority 2009, published 2011)
